Reference: patent US20150044717A1, “DEVICES AND METHODS FOR OBSERVING EUKARYOTIC CELLS WITHOUT CELL WALL” (CENTRE NATIONAL DE LA RECHERCHE SCIENTIFIQUE, priority 2012, published 2015)

Tested on: cytokinetic ring of HeLa cells
Test: closure of the cytokinetic ring of cells in egg cups after addition of drugs (fluorescence microscopy)
Assay type: cell-based, human
Conditions: for ring diameter as a function of time / closing speed: after addition of latrunculin A 1.5 μM
Procedure: For the experiments, a human HeLa cell line was used. The cells were stably transfected with a plasmid coding for actin monomers tagged with GFP. Cells were cultured in a growth medium containing DMEM with 10% FCS and 2 mM of L-Glutamine. After replating cells, Geneticin (0.5 mg/ml) was added to the medium.
During the experiments, cells were cultured in L-15 with 10% FCS and 2 mM of L-Glutamine.
Synchronized cells were obtained by mitotic shake-off. To have a sufficient number of dividing cells, cells were cultured in flasks of 75 cm^2 surface. The flasks were tapped on a solid surface to detach loosely attached cells, which rounded up before undergoing division. Alternatively, cells were synchronized with classical protocols such as the thymidine block, mitotic block (both Whitfield M L, Mol. Cell. Biol. 2000, 20(12): 4188-4198) or monastrol incubation (Straight A F et al., Science. 2003, 299:1743-1747).
The coverslips with the egg cups were exposed to nitrogen plasma for 30 s and then incubated with a solution of fibronectin (20 μg/ml in phosphate buffered saline (PBS), Sigma Aldrich) for 1 h. The sample could be stored in PBS for some hours. A cylindrically shaped plastic piece was placed in a 50 ml tube. The tube was filled with 6.5 ml of growth medium. The egg cup coverslip was horizontally placed in a tube, supported by the plastic cylinder. The suspension of synchronized cells was added on top of the coverslip. The tube was centrifuged for 5 min at 4000 rpm. The coverslip was carefully removed from the tube and installed in a home-made metallic holder. L-15 medium with 10% FCS and 2 mM L-Glutamine was immediately added. During the experiment the holder was closed by a plastic cover to prevent evaporation.
The drugs were added immediately before the experiment. The inventors used a concentration of 1.5 μM latrunculin A (Sigma Aldrich) (Delanoc-Ayari H. et al., Phys. Rev. Lett. 2004, 93(10): 108102) and 100 μM (−)-blebbistatin (Sigma Aldrich) (Straight A F et al., Science. 2003, 299:1743-1747).
The objective was a Plan Apo 60× objective (oil, 1.40 NA, Nikon). The images were captured and processed with the NIS Elements software (v3.10, SP3, Nikon).

[1] = blebbistatin 100 μM, HeLa cells in egg cups

SMILES | ring diameter as a function of time / closing speed (HeLa cells in egg cups) | ring diameter as a function of time / closing speed (HeLa cells in egg cups, listed as latrunculin A) | cell division (in the presence of latrunculin A 1.5 μM, HeLa cells in egg cups) | closure of the cytokinetic ring (latrunculin A 1.5 μM, HeLa cells with GFP-actin in egg cups) | cell division (ring diameter as a function of time) [1] | closure of the cytokinetic ring [1]
C/C1=C/C(=O)O[C@@H]2C[C@@H](CC[C@H](C)/C=C\C=C\CC1)O[C@@](O)([C@@H]1CSC(=O)N1)C2 [Latrunculin A, latrunculin A] | a slight increase in closing speed, then a slight expansion of the ring | the speed is first slightly increasing, then the ring becomes larger again until the signal vanishes | Cells did not divide | the ring does not close completely | – | –
Cc1ccc2c(c1)C(=O)C1(O)CCN(c3ccccc3)C1=N2 (single isomer, unassigned; (-)) [Blebbistatin, (−)-blebbistatin] | – | – | – | – | slows down and stops the division | the closure was slowed down and failed
